The values below come from US8883963B2 (Cadila Healthcare Limited, priority 2007, dated 2014).

Data set [1] in a line: Stability in liver microsomes. The format is in vitro ADME. As to conditions: 2 μM peptidomimetic, human liver microsomes, 37° C.; for half-life at 2 μM: pH 7.8, read-out: half-life (t1/2) when incubated with liver microsomes. The method, then: (§1) Reactions were terminated by the addition of TFA/H2O (15 mL, 10% (v/v)). […] The column was equilibrated with TFA/H20, at a flow rate of 1 mL/min.
Background: Microsomes from liver hold many membrane-bound enzymes, among them those of drug oxidation.

The target of the next data set is DPP IV (Homo sapiens, UniProt P27487). The data set can be described thus: Stability against DPP IV enzyme. The format is in vitro ADME. As to conditions: 37° C.; for % degradation of peptidomimetics in 24 h when incubated with DPP-IV enzyme: 2 μM peptidomimetic; for half-life at 2 μM: DPP IV enzyme, pH 7.8, 2 μM peptidomimetic, read-out: half-life (t1/2) when incubated with DPP-IV enzyme. The method, then:
as §1

The next data set concerns the target T1, human glucagon receptor (Homo sapiens, UniProt P47871).
T1 construct: The full-length cDNA was cloned in pcDNA3.1 (Invitrogen); expressed in transfected cells
The experiment in a line: In vitro human glucagon antagonist activity (inhibition of cAMP production) in CHO/human glucagon R cells. The format is cell-based. As to conditions: with saturated concentration of glucagon peptide.

Data set [2] in a line: Stability in simulated intestinal fluid. The format is in vitro ADME. As to conditions: 2 μM peptidomimetic, simulated intestinal fluid pH 7.5, 37° C.; for half-life at 2 μM: read-out: half-life (t1/2) when incubated with simulated intestinal fluid. The method, then: as §1
Data set [3] can be described thus: Stability in simulated gastric fluid. The format is in vitro ADME. As to conditions: 2 μM peptidomimetic, simulated gastric fluid pH 1.5, 37° C.; for half-life at 2 μM: read-out: half-life (t1/2) when incubated with simulated gastric fluid. The method, then:
as §1

The nature of data set [4]: Stability in human plasma. The format is in vitro ADME. As to conditions: 2 μM peptidomimetic, pooled human plasma, 37° C.; for half-life at 2 μM: pH 7.8, read-out: half-life (t1/2) when incubated with human plasma. The method, then: as §1

Non-standard residues stand in square brackets, D forms with d. Residues, ends and D or L forms follow the SMILES beside them. ξ: configuration not given here. *: point of attachment. X3 = CCc1cc(OC)ccc1-c1ccc(CC(N*)C(=S)NC(CCCc2ccccc2)C(N)=O)cc1; ξNMeBip(2'-Et,4'-OMe) = CCc1cc(OC)ccc1-c1ccc(CC(NC)C(=O)O)cc1; Leu(5,5,5,5',5',5'-F6) = N[C@@H](CC(C(F)(F)F)C(F)(F)F)C(=O)O; ξBip(2'-Et-4'-OMe) = CCc1cc(OC)ccc1-c1ccc(CC(N)C(=O)O)cc1; ξNMeNva(5-(2-F-Ph)) = CNC(CCCc1ccccc1F)C(=O)O; ξNva(5-(3-Cl-Ph)) = NC(CCCc1cccc(Cl)c1)C(=O)O; ξαMePhe(2-F) = CC(N)(Cc1ccccc1F)C(=O)O; NMeD = CN[C@@H](CC(=O)O)C(=O)O; aThr = C[C@H](O)[C@H](N)C(=O)O; Aib = CC(C)(N)C(=O)O

Chain of DPP IV (P27487 whole entry, species assumed): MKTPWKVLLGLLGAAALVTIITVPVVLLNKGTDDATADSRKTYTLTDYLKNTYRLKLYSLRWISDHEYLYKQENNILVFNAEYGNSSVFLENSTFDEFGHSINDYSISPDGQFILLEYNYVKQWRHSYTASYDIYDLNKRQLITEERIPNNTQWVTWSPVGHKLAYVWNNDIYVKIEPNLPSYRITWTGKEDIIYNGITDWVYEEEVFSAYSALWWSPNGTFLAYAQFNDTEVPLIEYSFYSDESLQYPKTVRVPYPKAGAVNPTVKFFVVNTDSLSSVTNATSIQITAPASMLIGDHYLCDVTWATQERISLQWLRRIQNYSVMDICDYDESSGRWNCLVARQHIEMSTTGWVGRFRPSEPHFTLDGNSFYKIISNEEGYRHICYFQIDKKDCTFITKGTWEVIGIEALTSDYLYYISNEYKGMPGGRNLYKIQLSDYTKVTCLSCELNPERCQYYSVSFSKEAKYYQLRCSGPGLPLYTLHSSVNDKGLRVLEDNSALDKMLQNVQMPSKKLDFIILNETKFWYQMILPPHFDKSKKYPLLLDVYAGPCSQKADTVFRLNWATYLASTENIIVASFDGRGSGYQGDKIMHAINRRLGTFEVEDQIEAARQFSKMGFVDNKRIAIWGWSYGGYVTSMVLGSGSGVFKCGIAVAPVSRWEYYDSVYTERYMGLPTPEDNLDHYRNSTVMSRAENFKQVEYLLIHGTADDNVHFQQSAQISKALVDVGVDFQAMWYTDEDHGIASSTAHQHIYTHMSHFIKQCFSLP
T1 sequence (P47871 26-477): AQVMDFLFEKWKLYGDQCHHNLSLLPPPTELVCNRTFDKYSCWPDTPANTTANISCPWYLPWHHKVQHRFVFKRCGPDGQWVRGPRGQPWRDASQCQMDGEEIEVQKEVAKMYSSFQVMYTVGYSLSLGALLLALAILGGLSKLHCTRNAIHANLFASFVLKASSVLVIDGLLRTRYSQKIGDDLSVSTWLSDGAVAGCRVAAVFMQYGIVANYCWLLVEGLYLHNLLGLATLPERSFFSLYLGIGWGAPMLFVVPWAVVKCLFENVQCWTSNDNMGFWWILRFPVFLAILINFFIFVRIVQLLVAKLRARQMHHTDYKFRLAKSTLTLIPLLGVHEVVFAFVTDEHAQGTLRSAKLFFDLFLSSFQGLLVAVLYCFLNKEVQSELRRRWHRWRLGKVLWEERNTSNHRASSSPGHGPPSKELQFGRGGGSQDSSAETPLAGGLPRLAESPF

On to `CCc1cc(OC)ccc1-c1ccc(CC(NC(=O)[C@H](CC(=O)O)NC(=O)[C@H](CO)NC(=O)[C@@H](NC(=O)C(C)(Cc2ccccc2F)NC(=O)[C@@H](NC(=O)CNC(=O)C(CCC#N)NC(=O)C(C)(C)NC(=O)[C@H](Cc2c[nH]cn2)NC(=O)OC)[C@@H](C)O)[C@@H](C)O)C(=O)NC(CCCc2ccccc2F)C(N)=O)cc1` (single isomer, unassigned) [compound 208], for which, in data set [1], the “% degradation of peptidomimetics in 24 h when incubated with liver microsomes” value (“% degradation … with liver microsomes” for short) is on record as 100%. Besides, the half-life at 2 μM in data set [1], in data set [2] and in data set [3] was 30 min throughout. Also, the “% degradation of peptidomimetics in 24 h when incubated with DPP-IV enzyme” value (“% degradation … with DPP-IV enzyme” for short) at DPP IV was determined as 76%. Besides, the “Human Glucagon receptor antagonistic activity shown as inhibition of cAMP production of Glucagon peptide” value was 5 ± 0.04 pmol/ml/μg prt at human glucagon receptor (1 nM test compound); 3 ± 0.15 pmol/ml/μg prt on human glucagon receptor (10 nM test compound); 1 ± 0.15 pmol/ml/μg prt on human glucagon receptor (100 nM test compound); 0 pmol/ml/μg prt at human glucagon receptor (1 μM test compound); 0 pmol/ml/μg prt on human glucagon receptor (10 μM test compound). Moreover, the “% degradation of peptidomimetics in 24 h when incubated with simulated intestinal fluid” value (from here on “% degradation … with simulated intestinal fluid”) in data set [2] was 100%. In addition, the “% degradation of peptidomimetics in 24 h when incubated with simulated gastric fluid” value (shortened to “% degradation … with simulated gastric fluid”) in data set [3] was 100%. For the same molecule, the “half-life (t1/2) when incubated with human plasma” value (“half-life … with human plasma” for short) in data set [4] is reported as “(9) h”. The “% degradation of peptidomimetics in 24 h when incubated with human plasma” value (“% degradation … with human plasma” for short) in data set [4] was 78%.
`CCc1cc(OC)ccc1-c1ccc(CC(CNC(CCCc2ccccc2)C(N)=O)NC(=O)[C@H](CC(=O)O)NC(=O)[C@H](CO)NC(=O)[C@@H](NC(=O)C(C)(Cc2ccccc2F)NC(=O)[C@@H](NC(=O)CNC(=O)[C@H](CC(C(F)(F)F)C(F)(F)F)NC(=O)C(C)(C)NC(=O)[C@@H](N)Cc2c[nH]cn2)[C@H](C)O)[C@H](C)O)cc1` (stereo partly drawn) [compound 215]: in data set [1], the “half-life (t1/2) when incubated with liver microsomes” value (“half-life … with liver microsomes” for short) is on record as “(5) h” and the “% degradation … with liver microsomes” value is reported as 32%. Also, on DPP IV, the “% degradation … with DPP-IV enzyme” value was determined as 00% and the half-life at 2 μM is over 1440 min. Further, in data set [2], the “% degradation … with simulated intestinal fluid” value is 00% and the half-life at 2 μM was over 1440 min. Also, in data set [3], the “% degradation … with simulated gastric fluid” value was 00% and the half-life at 2 μM was over 1440 min. For the same molecule, in data set [4], the “% degradation … with human plasma” value is given as 00% and the half-life at 2 μM was over 1440 min.
With `CCc1cc(OC)ccc1-c1ccc(CC(NC(=O)[C@H](CC(=O)O)NC(=O)[C@H](CO)NC(=O)[C@@H](NC(=O)C(C)(Cc2ccccc2F)NC(=O)[C@@H](NC(=O)CNC(=O)[C@H](CC(C(F)(F)F)C(F)(F)F)NC(=O)C(C)(C)NC(=O)[C@@H](N)Cc2c[nH]cn2)[C@H](C)O)[C@H](C)O)C(=S)NC(CCCc2ccccc2)C(N)=O)cc1` (stereo partly drawn) [compound 219] (H-H[Aib][Leu(5,5,5,5',5',5'-F6)]G[aThr][ξαMePhe(2-F)][aThr]SD-X3), in data set [1], the “half-life … with liver microsomes” value is given as “(5) h” and the “% degradation … with liver microsomes” value is 33%. In addition, at DPP IV, the “% degradation … with DPP-IV enzyme” value turned out to be 00% and the half-life at 2 μM was over 1440 min. For the same molecule, in data set [2], the “% degradation … with simulated intestinal fluid” value is listed as 00% and the half-life at 2 μM is over 1440 min. In addition, in data set [3], the “% degradation … with simulated gastric fluid” value was 00% and the half-life at 2 μM is over 1440 min. Besides, in data set [4], the “% degradation … with human plasma” value worked out at 00% and the half-life at 2 μM was over 1440 min.
On to `CCc1cc(OC)ccc1-c1ccc(CC(C(=O)N(C)C(CCCc2ccccc2F)C(N)=O)N(C)C(=O)[C@H](CC(=O)O)N(C)C(=O)[C@H](CO)NC(=O)[C@@H](NC(=O)C(C)(Cc2ccccc2F)NC(=O)[C@@H](NC(=O)CNC(=O)[C@H](CC(C(F)(F)F)C(F)(F)F)NC(=O)C(C)(C)NC(=O)[C@@H](N)Cc2c[nH]cn2)[C@H](C)O)[C@H](C)O)cc1` (stereo partly drawn) [compound 221] (H-H[Aib][Leu(5,5,5,5',5',5'-F6)]G[aThr][ξαMePhe(2-F)][aThr]S[NMeD][ξNMeBip(2'-Et,4'-OMe)][ξNMeNva(5-(2-F-Ph))]-NH2), for which, in data set [1], the “half-life … with liver microsomes” value is given as “(5) h” and the “% degradation … with liver microsomes” value worked out at 32%. In addition, at DPP IV, the “% degradation … with DPP-IV enzyme” value amounted to 00% and the half-life at 2 μM is over 1440 min. Further, in data set [2], the “% degradation … with simulated intestinal fluid” value is reported as 00% and the half-life at 2 μM is over 1440 min. Moreover, in data set [3], the “% degradation … with simulated gastric fluid” value was 00% and the half-life at 2 μM was over 1440 min. In addition, in data set [4], the “% degradation … with human plasma” value is recorded as 00% and the half-life at 2 μM was over 1440 min.
For `CCc1cc(OC)ccc1-c1ccc(CC(NC(=O)[C@H](CC(=O)O)NC(=O)[C@H](CO)NC(=O)[C@@H](NC(=O)C(C)(Cc2ccccc2F)NC(=O)[C@@H](NC(=O)CNC(=O)[C@H](CC(C(F)(F)F)C(F)(F)F)NC(=O)C(C)(C)NC(=O)[C@@H](N)Cc2c[nH]cn2)[C@H](C)O)[C@@H](C)O)C(=O)NC(CCCc2ccccc2)C(N)=O)cc1` (stereo partly drawn) [compound 226], in data set [1], the “% degradation … with liver microsomes” value is listed as 100% and the half-life at 2 μM was 30 min. Also, at DPP IV, the “% degradation … with DPP-IV enzyme” value is 74%. For the same molecule, in data set [2], the “% degradation … with simulated intestinal fluid” value is 100% and the half-life at 2 μM was 30 min. For the same molecule, in data set [3], the “% degradation … with simulated gastric fluid” value is given as 100% and the half-life at 2 μM is 30 min. Moreover, in data set [4], the “half-life … with human plasma” value is given as “(9) h” and the “% degradation … with human plasma” value is recorded as 75%.
Turning to `CCc1cc(OC)ccc1-c1ccc(CC(NC(=O)[C@H](CC(=O)O)NC(=O)[C@H](CO)NC(=O)[C@@H](NC(=O)C(C)(Cc2ccccc2F)NC(=O)[C@@H](NC(=O)CNC(=O)[C@H](CC(C(F)(F)F)C(F)(F)F)NC(=O)C(C)(C)NC(=O)[C@@H](N)Cc2c[nH]cn2)[C@H](C)O)[C@H](C)O)C(=O)NC(CCCc2ccccc2F)C(N)=O)cc1` (stereo partly drawn) [compound 229], in data set [1], the “% degradation … with liver microsomes” value was 100% and the half-life at 2 μM stood at 30 min. Besides, the “% degradation … with DPP-IV enzyme” value at DPP IV worked out at 70%. In addition, in data set [2], the “% degradation … with simulated intestinal fluid” value was 100% and the half-life at 2 μM is 30 min. In data set [3], the “% degradation … with simulated gastric fluid” value is recorded as 100% and the half-life at 2 μM was 30 min. Besides, in data set [4], the “half-life … with human plasma” value is “(9) h” and the “% degradation … with human plasma” value is reported as 71%.
With `CCc1cc(OC)ccc1-c1ccc(CC(NC(=O)[C@H](CC(=O)O)NC(=O)[C@H](CO)NC(=O)[C@@H](NC(=O)C(C)(Cc2ccccc2F)NC(=O)[C@@H](NC(=O)CNC(=O)[C@H](CC(C(F)(F)F)C(F)(F)F)NC(=O)C(C)(C)NC(=O)[C@@H](N)Cc2c[nH]cn2)[C@@H](C)O)[C@@H](C)O)C(=O)NC(CCCc2ccccc2)C(N)=O)cc1` (stereo partly drawn) [compound 234], in data set [1], the “% degradation … with liver microsomes” value is recorded as 100% and the half-life at 2 μM was 30 min. In addition, the “% degradation … with DPP-IV enzyme” value on DPP IV is on record as 72%. In data set [2], the “% degradation … with simulated intestinal fluid” value is on record as 100% and the half-life at 2 μM was 30 min. Further, in data set [3], the “% degradation … with simulated gastric fluid” value was 100% and the half-life at 2 μM was 30 min. In addition, in data set [4], the “half-life … with human plasma” value is reported as “(9) h” and the “% degradation … with human plasma” value is given as 70%.
Consider `CCc1cc(OC)ccc1-c1ccc(CC(NC(=O)[C@H](CC(=O)O)NC(=O)[C@H](CO)NC(=O)[C@@H](NC(=O)C(C)(Cc2ccccc2F)NC(=O)[C@@H](NC(=O)CNC(=O)[C@H](CC(C(F)(F)F)C(F)(F)F)NC(=O)C(C)(C)NC(=O)[C@@H](N)Cc2c[nH]cn2)[C@@H](C)O)[C@@H](C)O)C(=O)NC(CCCc2cccc(Cl)c2)C(N)=O)cc1` (stereo partly drawn) [compound 236] (H-H[Aib][Leu(5,5,5,5',5',5'-F6)]GT[ξαMePhe(2-F)]TSD[ξBip(2'-Et-4'-OMe)][ξNva(5-(3-Cl-Ph))]-NH2), for which, in data set [1], the “half-life … with liver microsomes” value is on record as “(5) h” and the “% degradation … with liver microsomes” value is 35%. Further, on DPP IV, the “% degradation … with DPP-IV enzyme” value is 00% and the half-life at 2 μM is over 1440 min. For the same molecule, in data set [2], the “% degradation … with simulated intestinal fluid” value is 00% and the half-life at 2 μM was over 1440 min. Besides, in data set [3], the “% degradation … with simulated gastric fluid” value is recorded as 00% and the half-life at 2 μM is over 1440 min. Besides, in data set [4], the “% degradation … with human plasma” value stood at 00% and the half-life at 2 μM was over 1440 min.
